pIC50: −log10 of the molar value.

b-Raf (V600E), sequence (P15056 whole entry V600E): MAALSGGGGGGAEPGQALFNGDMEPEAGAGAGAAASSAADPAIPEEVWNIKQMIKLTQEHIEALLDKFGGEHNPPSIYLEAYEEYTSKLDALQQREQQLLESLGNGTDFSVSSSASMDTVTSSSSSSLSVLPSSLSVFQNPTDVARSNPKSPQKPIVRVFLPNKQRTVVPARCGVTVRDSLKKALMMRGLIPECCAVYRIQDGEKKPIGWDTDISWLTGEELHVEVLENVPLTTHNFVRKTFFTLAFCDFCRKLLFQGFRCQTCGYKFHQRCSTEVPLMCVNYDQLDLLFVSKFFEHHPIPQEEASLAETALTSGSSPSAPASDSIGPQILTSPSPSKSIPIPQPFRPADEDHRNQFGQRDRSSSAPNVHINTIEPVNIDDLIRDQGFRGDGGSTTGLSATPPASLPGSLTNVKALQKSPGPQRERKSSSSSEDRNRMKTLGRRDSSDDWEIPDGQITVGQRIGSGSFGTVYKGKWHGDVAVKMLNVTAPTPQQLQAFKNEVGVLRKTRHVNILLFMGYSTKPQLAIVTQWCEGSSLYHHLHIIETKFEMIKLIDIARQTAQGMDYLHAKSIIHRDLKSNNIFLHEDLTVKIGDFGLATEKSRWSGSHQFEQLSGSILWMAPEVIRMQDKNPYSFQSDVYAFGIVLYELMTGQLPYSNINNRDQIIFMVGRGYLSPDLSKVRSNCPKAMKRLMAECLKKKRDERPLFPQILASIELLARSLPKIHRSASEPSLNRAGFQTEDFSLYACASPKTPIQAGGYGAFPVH

This experiment has as its target b-Raf (V600E) (Homo sapiens (Human), UniProt P15056, V600E). Particulars: read-out: b-Raf IC-50; AlphaScreen, 60 min pre-incubation, reaction 3 hours at room temperature.
From the text: Sf9 cells co-expressing both proteins were lysed and subjected to immobilized nickel chromatography and eluted with Imidazole. A second column (StrepII binding column) was used and eluted with desthiobiotin. Protein Tags were removed using Prescission enzyme and the protein was further purified using a flowthrough step to remove tags.
Full length MEK1 with an inactivating K97R ATP binding site mutation is utilized as a RAF substrate. The MEK1 cDNA was subcloned with an N-terminal (his)6 tag into a vector for E. Coli expression. The MEK1 substrate was purified from E. Coli lysate by nickel affinity chromatography followed by anion exchange. The final MEK1 preparation was biotinylated (Pierce EZ-Link Sulfo-NHS-LC-Biotin) and concentrated.
Assay buffer: 50 mM Tris, pH 7.5, 15 mM MgCl2, 0.01% Bovine Serum Albumin (BSA), 1 mM dithiothreitol (DTT) Stop buffer: 60 mM ethylenediaminetetraacetic acid (EDTA), 0.01% Tween® 20
biotinylated Mek, kinase dead
384 well low volume assay plates (White Greiner® plates)
biotinylated Mek, Kinase dead approximately 10 nM
Pre-incubation time with compounds 60 minutes at room temperature
Reaction time 1 or 3 hours at room temperature
The plate was incubated for 60 minutes at room temperature.
The additions were carried out under dark conditions to protect the detection beads from light. A lid was placed on top of the plate and incubated for 1 hour at room temperature, then the luminescence was read on a PerkinElmer Envision instrument.
Consider `CCOc1ncc(-c2cc(C(=O)Nc3cc(C(F)(F)F)ncc3F)ccc2C)cc1N1CCOCC1` [Example 961, 3-(6-ethoxy-5-morpholinopyridin-3-yl)-N-(5-fluoro-2-(trifluoromethyl)pyridin-4-yl)-4-methylbenzamide], for which the pIC50 was 8.74.
Under `Cc1ncc(NC(=O)c2cnnc(C(C)(C)C#N)c2)cc1-c1cnc(OCC(F)F)c(N2CCOCC2)c1` [Example 962, 6-(2-cyanopropan-2-yl)-N-(6′-(2,2-difluoroethoxy)-2-methyl-5′-morpholino-[3,3′-bipyridin]-5-yl)pyridazine-4-carboxamide] stands 7.81.
Regarding `Cc1ncc(NC(=O)c2ccnc(C(C)(C)F)c2)cc1-c1cnc(OC2CC3(COC3)C2)c(N2CCOCC2)c1` [Example 963, N-(6′-(2-oxaspiro[3.3]heptan-6-yloxy)-2-methyl-5′-morpholino-[3,3′-bipyridin]-5-yl)-2-(2-fluoropropan-2-yl)isonicotinamide], the pIC50 was 8.54.
Next, `Cc1ncc(NC(=O)c2ccnc(C(C)(C)O)c2)cc1-c1cnc(OC2CC3(COC3)C2)c(N2CCOCC2)c1` [Example 964, N-(6′-(2-oxaspiro[3.3]heptan-6-yloxy)-2-methyl-5′-morpholino-[3,3′-bipyridin]-5-yl)-2-(2-hydroxypropan-2-yl)isonicotinamide]: 8.09.
Next, `Cc1ncc(NC(=O)c2ccnc(C3CC3)c2)cc1-c1cnc(OC2CC3(COC3)C2)c(N2CCOCC2)c1` [Example 966, N-(6′-(2-oxaspiro[3.3]heptan-6-yloxy)-2-methyl-5′-morpholino-[3,3′-bipyridin]-5-yl)-2-cyclopropylisonicotinamide]: 8.87; `Cc1ncc(NC(=O)c2ccnc(C(C)(C)C#N)c2)cc1-c1cnc(OC2CC3(COC3)C2)c(N2CCOCC2)c1` [Example 967, N-(6′-(2-oxaspiro[3.3]heptan-6-yloxy)-2-methyl-5′-morpholino-[3,3′-bipyridin]-5-yl)-2-(2-cyanopropan-2-yl)isonicotinamide]: 8.24.
Next, `Cc1ncc(NC(=O)c2cc(C(C)(C)F)ccn2)cc1-c1cnc(OC2CC3(COC3)C2)c(N2CCOCC2)c1` [Example 968, N-(6′-(2-oxaspiro[3.3]heptan-6-yloxy)-2-methyl-5′-morpholino-[3,3′-bipyridin]-5-yl)-4-(2-fluoropropan-2-yl)picolinamide]: 8.43; `Cc1ncc(NC(=O)c2cc(C(C)(C)O)ccn2)cc1-c1cnc(OC2CC3(COC3)C2)c(N2CCOCC2)c1` [Example 969, N-(6′-(2-oxaspiro[3.3]heptan-6-yloxy)-2-methyl-5′-morpholino-[3,3′-bipyridin]-5-yl)-4-(2-hydroxypropan-2-yl)picolinamide]: 7.74.
Regarding `Cc1ncc(NC(=O)c2cc(C(C)(C)C#N)ccn2)cc1-c1cnc(OC2CC3(COC3)C2)c(N2CCOCC2)c1` [Example 970, N-(6′-(2-oxaspiro[3.3]heptan-6-yloxy)-2-methyl-5′-morpholino-[3,3′-bipyridin]-5-yl)-4-(2-cyanopropan-2-yl)picolinamide], the pIC50 was 8.06.
Next, `Cc1ncc(NC(=O)c2cc(C(C)(C)F)ccn2)cc1-c1cnc(OCCO)c(N2CCOCC2)c1` [Example 971, 4-(2-fluoropropan-2-yl)-N-(6′-(2-hydroxyethoxy)-2-methyl-5-morpholino-[3,3′-bipyridin]-5-yl)picolinamide]: 8.08; `Cc1ncc(NC(=O)c2cc(C(C)(C)O)ccn2)cc1-c1cnc(OCCO)c(N2CCOCC2)c1` [Example 972, N-(6′-(2-hydroxyethoxy)-2-methyl-5-morpholino-[3,3′-bipyridin]-5-yl)-4-(2-hydroxypropan-2-yl)picolinamide]: 7.43.
Under `Cc1ncc(NC(=O)c2cc(C(C)(C)C#N)ccn2)cc1-c1cnc(OCCO)c(N2CCOCC2)c1` [Example 973, 4-(2-cyanopropan-2-yl)-N-(6′-(2-hydroxyethoxy)-2-methyl-5′-morpholino-[3,3′-bipyridin]-5-yl)picolinamide] stands 7.80; under `Cc1ncc(NC(=O)c2cc(C(C)(F)F)ccn2)cc1-c1cnc(OCCO)c(N2CCOCC2)c1` [Example 974, 4-(1,1-difluoroethyl)-N-(6′-(2-hydroxyethoxy)-2-methyl-5-morpholino-[3,3′-bipyridin]-5-yl)picolinamide], 8.56.
Regarding `CCOc1ncc(-c2cc(NC(=O)c3cccc(S(C)(=N)=O)c3)ccc2C)cc1N1CCOCC1` (centres unmarked) [Example 975, N-(3-(6-ethoxy-5-morpholinopyridin-3-yl)-4-methylphenyl)-3-(S-methylsulfonimidoyl)benzamide], the pIC50 is 8.74.
Under `Cc1ncc(NC(=O)c2cccc(C(O)C(F)(F)F)c2)cc1-c1cnc(OC2CCOCC2)c(N2CCOCC2)c1` (centres unmarked) [Example 977, N-(2-methyl-5′-morpholino-6′-((tetrahydro-2H-pyran-4-yl)oxy)[3,3′-bipyridin]-5-yl)-3-(2,2,2-trifluoro-1-hydroxyethyl)benzamide] stands 8.38; under `Cc1ncc(NC(=O)c2ccnc(C(F)(F)F)c2)cc1-c1cnc(OC(F)F)c(N2CCOCC2)c1` [Example 978], 8.73.
Under `Cc1ncc(NC(=O)c2ccnc(C(C)(C)O)c2)cc1-c1cnc(OC(F)F)c(N2CCOCC2)c1` [Example 979, N-(6′-(difluoromethoxy)-2-methyl-5′-morpholino-[3,3′-bipyridin]-5-yl)-2-(2-hydroxypropan-2-yl)isonicotinamide] stands 7.87; under `Cc1ncc(NC(=O)c2ccnc(C(C)(F)F)c2)cc1-c1cnc(OC(F)F)c(N2CCOCC2)c1` [Example 980, 2-(1,1-difluoroethyl)-N-(6′-(difluoromethoxy)-2-methyl-5′-morpholino-[3,3′-bipyridin]-5-yl)isonicotinamide], 8.70.
Under `Cc1ncc(NC(=O)c2cc(C(C)(C)C#N)ccn2)cc1-c1cnc(OC(F)F)c(N2CCOCC2)c1` [Example 981, 4-(2-cyanopropan-2-yl)-N-(6′-(difluoromethoxy)-2-methyl-5′-morpholino-[3,3′-bipyridin]-5-yl)picolinamide] stands 8.12; under `Cc1ncc(NC(=O)c2ccnc(C(F)F)c2)cc1-c1cnc(OC(F)F)c(N2CCOCC2)c1` [Example 982, N-(6′-(difluoromethoxy)-2-methyl-5′-morpholino-[3,3′-bipyridin]-5-yl)-2-(difluoromethyl)isonicotinamide], 8.61.
As for `CCC(F)(F)c1cc(C(=O)Nc2cnc(C)c(-c3cnc(OC(F)F)c(N4CCOCC4)c3)c2)ccn1` [Example 983, N-(6′-(difluoromethoxy)-2-methyl-5-morpholino-[3,3′-bipyridin]-5-yl)-2-(1,1-difluoropropyl)isonicotinamide], the pIC50 was 8.52.
In the case of `Cc1ncc(NC(=O)c2cccc(C(F)(F)F)c2)cc1-c1cnc(OC[C@@H](C)O)c(N2CCOCC2)c1` [Example 984, (R)—N-(6′-(2-hydroxypropoxy)-2-methyl-5′-morpholino-[3,3′-bipyridin]-5-yl)-3-(trifluoromethyl)benzamide], the pIC50 was 8.64.
Under `Cc1ncc(NC(=O)c2cccc(C(F)(F)F)c2)cc1-c1cnc(O[C@@H](C)CO)c(N2CCOCC2)c1` [Example 985, (S)—N-(6′-((1-hydroxypropan-2-yl)oxy)-2-methyl-5′-morpholino-[3,3′-bipyridin]-5-yl)-3-(trifluoromethyl)benzamide] stands 8.70; under `Cc1ncc(NC(=O)c2cccc(C(F)(F)F)c2)cc1-c1cnc(N(C)CCO)c(N2CCOCC2)c1` [Example 986, N-(6′-((2-hydroxyethyl)(methyl)amino)-2-methyl-5′-morpholino-[3,3′-bipyridin]-5-yl)-3-(trifluoromethyl)benzamide], 9.08.
Next, `CNC(=O)c1ncc(-c2cc(NC(=O)c3ccnc(C(C)(F)F)c3)ccc2C)cc1N1CCOCC1` [Example 987, 5-(5-(2-(1,1-difluoroethyl)isonicotinamido)-2-methylphenyl)-N-methyl-3-morpholinopicolinamide]: 8.58; `Cc1ccc(NC(=O)c2ccnc(S(C)(=O)=O)c2)cc1-c1cnc(OC[C@H](C)O)c(N2CCOCC2)c1` [Example 989, (S)—N-(3-(6-(2-hydroxypropoxy)-5-morpholinopyridin-3-yl)-4-methylphenyl)-2-(methylsulfonyl)isonicotinamide]: 8.71.
Next, `Cc1ncc(NC(=O)c2ccnc(C(C)(C)F)c2)cc1-c1cnc(OC[C@H](C)O)c(N2CCOCC2)c1` [Example 990, (S)-2-(2-fluoropropan-2-yl)-N-(6′-(2-hydroxypropoxy)-2-methyl-5-morpholino-[3,3′-bipyridin]-5-yl)isonicotinamide]: 8.27; `Cc1ccc(NC(=O)c2ccnc(C(F)(F)F)c2)cc1-c1cc(NC[C@@H](C)O)nc(N2CCOCC2)c1` [Example 991, (R)—N-(3-(2-((2-hydroxypropyl)amino)-6-morpholinopyridin-4-yl)-4-methylphenyl)-2-(trifluoromethyl)isonicotinamide]: 8.63; `Cc1ncc(NC(=O)c2cccc(C(F)(F)F)c2)cc1-c1cnc(OCC2COCCO2)c(N2CCOCC2)c1` (centres unmarked) [Example 992]: 8.79.
`Cc1ncc(NC(=O)c2cccc(C(F)(F)F)c2)cc1-c1cnc(CC2(O)CCOCC2)c(N2CCOCC2)c1` [Example 993, N-(6′-((4-hydroxytetrahydro-2H-pyran-4-yl)methyl)-2-methyl-5′-morpholino-[3,3′-bipyridin]-5-yl)-3-(trifluoromethyl)benzamide]: the pIC50 was 8.02.
Under `Cc1ccc(NC(=O)c2ccnc(C(C)(C)F)c2)cc1-c1cnc(OCCO)c(N2CCOCC2)c1` [Example 997, 2-(2-fluoropropan-2-yl)-N-(3-(6-(2-hydroxyethoxy)-5-morpholinopyridin-3-yl)-4-methylphenyl)isonicotinamide] stands 8.70; under `Cc1ccc(NC(=O)c2ccnc(C(C)(C)C#N)c2)cc1-c1cnc(OCCO)c(N2CCOCC2)c1` [Example 998, 2-(2-cyanopropan-2-yl)-N-(3-(6-(2-hydroxyethoxy)-5-morpholinopyridin-3-yl)-4-methylphenyl)isonicotinamide], 8.52.
